According to ChEMBL document CHEMBL1201862, “PubChem BioAssay data set” (2004):
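Values below derive from 48-hour exposures of cells grown in 96-well plates, with endpoints linearly interpolated between the two concentrations bracketing the appropriate inhibition level. Abbreviation: GI50, concentration required for 50% inhibition of growth.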 Activity calls are given as the source filed them. No stated cut-off is given here; in the data, active = GI50 up to about 1.1 µM and inactive = higher.

What was measured:
Experiment in all cases: NCI anticancer screen, dose series, 48 h
SNB-19 = test system: SNB-19
SN12C = test system: SN12C
OVCAR-3 = test system: OVCAR-3
MDA-MB-435 = test system: MDA-MB-435
RXF 393 = test system: RXF 393
786-0 = test system: 786-0
CCRF-CEM = test system: CCRF-CEM
SF-539 = test system: SF-539
HCT-116 = test system: HCT-116
A498 = test system: A498
UO-31 = test system: UO-31
SNB-75 = test system: SNB-75
HOP-92 = test system: HOP-92
HCC 2998 = test system: HCC 2998
SF-295 = test system: SF-295
SK-MEL-2 = test system: SK-MEL-2
KM12 = test system: KM12
Malme-3M = test system: Malme-3M
MCF7 = test system: MCF7

Measured: GI50

c1ccc(CN2CCN3CCN(CC2)CCN(Cc2ccccc2)CC3)cc1
inactive: SNB-19 5.43 µM | SN12C 4.51 µM | OVCAR-3 7.91 µM | MDA-MB-435 3.15 µM | RXF 393 5.6 µM | 786-0 4.57 µM | CCRF-CEM 6.37 µM | SF-539 8.26 µM | HCT-116 4.09 µM | A498 11.7 µM | UO-31 31.7 µM | SNB-75 4.05 µM | HOP-92 7.06 µM | HCC 2998 10.9 µM | SF-295 21.9 µM | SK-MEL-2 2.82 µM | KM12 3.33 µM | Malme-3M 2.83 µM | MCF7 5.5 µM

OCC1CCCC1O (centres undefined)
inactive: SNB-19 > 100 µM | SN12C > 100 µM | OVCAR-3 > 100 µM | MDA-MB-435 > 100 µM | RXF 393 > 100 µM | 786-0 > 100 µM | CCRF-CEM > 100 µM | SF-539 > 100 µM | HCT-116 > 100 µM | A498 > 100 µM | UO-31 > 100 µM | SNB-75 > 100 µM | HOP-92 > 100 µM | HCC 2998 > 100 µM | SF-295 > 100 µM | SK-MEL-2 > 100 µM | KM12 > 100 µM | Malme-3M > 100 µM | MCF7 > 100 µM

N#Cc1c(N2CCCC2)ncn(Cc2ccccc2)c1=S
inactive: SNB-19 58.5 µM | SN12C > 100 µM | OVCAR-3 60.5 µM | MDA-MB-435 > 100 µM | RXF 393 30.3 µM | 786-0 36.2 µM | CCRF-CEM > 100 µM | SF-539 40.1 µM | HCT-116 > 100 µM | A498 40.6 µM | UO-31 > 100 µM | SNB-75 25.8 µM | HOP-92 22.4 µM | HCC 2998 > 100 µM | SF-295 94.6 µM | SK-MEL-2 > 100 µM | KM12 > 100 µM | Malme-3M > 87.9 µM | MCF7 49.1 µM

CN(C)CCOC1(CC2CCCCC2)CCC(C(C)(C)C)CC1 (centres undefined)
inactive: SNB-19 8.43 µM | SN12C 6.46 µM | OVCAR-3 7.53 µM | MDA-MB-435 4.74 µM | RXF 393 3.72 µM | 786-0 2.48 µM | CCRF-CEM 2 µM | SF-539 4.61 µM | HCT-116 4.36 µM | A498 6.47 µM | UO-31 2.69 µM | SNB-75 6.81 µM | HOP-92 5.73 µM | HCC 2998 4.38 µM | SF-295 4.32 µM | SK-MEL-2 6.44 µM | KM12 4.27 µM | Malme-3M 2.83 µM | MCF7 2.98 µM

COc1ccc(CSCc2cc(OC)c(OC)c(OC)c2)cc1
inactive: SNB-19 > 68.1 µM | SN12C > 86.1 µM | OVCAR-3 > 100 µM | MDA-MB-435 4.43 µM | RXF 393 > 82 µM | 786-0 > 100 µM | CCRF-CEM > 100 µM | SF-539 > 71.9 µM | HCT-116 > 31.6 µM | A498 > 100 µM | UO-31 > 100 µM | SNB-75 37.5 µM | HOP-92 23.9 µM | HCC 2998 > 31.6 µM | SF-295 > 52.4 µM | SK-MEL-2 > 100 µM | KM12 27.1 µM | Malme-3M > 31.6 µM | MCF7 > 56 µM

CCOC(=O)C1=C(C)N(CC(C)C)C2(O)C(OC)CC(=O)C3C(=O)N(c4ccccc4)C(=O)C132 (centres undefined)
inactive: SNB-19 42.4 µM | SN12C 36 µM | OVCAR-3 43.3 µM | MDA-MB-435 37 µM | RXF 393 20.7 µM | 786-0 66.4 µM | CCRF-CEM 40.4 µM | SF-539 49.4 µM | HCT-116 40.5 µM | A498 78.5 µM | UO-31 20 µM | SNB-75 20 µM | HOP-92 45.6 µM | HCC 2998 24.8 µM | SF-295 52.4 µM | SK-MEL-2 20.4 µM | KM12 25.9 µM | Malme-3M 31.5 µM | MCF7 35.5 µM
